Measured values reported in patent US20100273651A1 (priority 2007, published 2010).
Read-outs that look alike come from different tables or passages of the source.

Columns and labels:
Septoria tritici [1] = test: Use example No. 3: activity against Septoria tritici in the microtiter test (Septtr); type: cell-based; details: relative growth vs active compound-free control (100%), 405 nm, day 7
Phakopsora pachyrhizi = test: Use Example 1: curative activity against soybean rust, greenhouse (Phakpa K1); type: in vivo; details: soybean seedlings sprayed 24 h after inoculation, visual rating after 14 days, untreated 90
Procedure: (§1) The active compounds were prepared separately or jointly as a stock solution comprising 25 mg of active compound which was made up to 10 ml using a mixture of acetone and/or DMSO and the emulsifier Uniperolt EL (wetting agent having emulsifying and dispersing action based on ethoxylated alkyl phenols) in a volume ratio of solvent/emulsifier of 99:1. The mixture was then made up to 100 ml with water. This stock solution was diluted with the solvent/emulsifier/water mixture described to give the concentration of active compounds stated below. Alternatively, the active compounds were used as a commercial finished formulation and diluted with water to the concentration of active compounds stated.
Leaves of potted soybean seedlings were inoculated with a spore suspension of soybean rust (Phakpsora pachyrhizi). The pots were then placed in a chamber with high atmospheric humidity (90 to 95%) and at 23 to 27° C. for 24 hours. During this time, the spores germinated and the germ tubes penetrated into the leaf tissue. The infected plants were then sprayed to runoff point with the active compound solution described above at the active compound concentration stated below. After the spray coating had dried on, the test plants were cultivated in a greenhouse at temperatures between 23 and 27° C. and 60 to 80% relative atmospheric humidity for 14 days. The extent of the rust fungus development on the leaves was then determined visually in percent infection.

Septoria tritici [2] = test: Use Example 2: protective activity against Septoria leaf spot of wheat, greenhouse (Septtr P2); type: in vivo; details: wheat seedlings inoculated 2 days after spraying, % infection of total leaf area after 21 days, untreated 90
Procedure: as §1
Leaves of potted wheat seedlings were sprayed to runoff point with an aqueous suspension having the active compound concentration stated below. 2 days after the spray coating had dried on, they were inoculated with an aqueous spore suspension of Septoria tritici. The test plants were then placed in a greenhouse at temperatures between 20 and 24° C. and a relative atmospheric humidity close to 100% for 4 days and then at temperatures between 18 and 22° C. and an atmospheric humidity of about 70%. After 21 days, the extent of the development of the disease was determined visually in % infection of the total leaf area.

Pyricularia oryzae = type: cell-based
Leptno = test: Comparative experiments: growth of Leptno (microtest, method not described); type: cell-based; details: comparative experiments against prior-art compound
[3] = relative growth vs active compound-free control (100%), 405 nm, day 7
[4] = comparative experiments against prior-art compound

Molecule: 1,2-bis[1-rel-(2S,3R)-2-(2-chlorophenyl)-3-(2,4-dichlorophenyl)oxiran-2-ylmethyl-1H-1,2,4-triazole-5-yl]disulfane [Compound 14]
- Growth in % at 31 ppm for Septtr (Septoria tritici [1]): 4%

Molecule: 1-[rel-(2S,3R)-2-(2-chlorophenyl)-3-(2,4-dichlorophenyl)oxiran-2-ylmethyl]-1H-1,2,4-triazole-5(4H-6-thione [Compound 2]
- Infection in % at 150 ppm for Phakpa K1 (Phakopsora pachyrhizi): 3%
- Infection in % at 150 ppm for Septtr P2 (Septoria tritici [2]): 10%
- Growth in % at 31 ppm for Pyrior (Pyricularia oryzae; [3]): 5%

Molecule: S=c1[nH]cnn1C[C@]1(c2ccccc2)O[C@@H]1c1ccc(Cl)c(Cl)c1Cl (relative stereo) [Compound 4, 1-[rel-(2S,3R)-2-phenyl-3-(2,3,4-trichlorophenyl)oxiran-2-ylmethyl]-1H-1,2,4-triazole-5(4H)-thione]
- Infection in % at 150 ppm for Phakpa K1 (Phakopsora pachyrhizi): 0%
- Infection in % at 150 ppm for Septtr P2 (Septoria tritici [2]): 15%

Molecule: CSc1ncnn1C[C@]1(c2ccccc2Cl)O[C@@H]1c1ccc(Cl)cc1Cl (relative stereo) [Compound 5, 1-[rel-(2S,3R)-2-(2-chlorophenyl)-3-(2,4-dichlorophenyl)oxiran-2-ylmethyl]-5-(methylthio)-1H-1,2,4-triazole]
- Growth in % at 31 ppm for Septtr (Septoria tritici [1]): 0%
- Growth in % at 31 ppm for Pyrior (Pyricularia oryzae; [4]): 0%

Molecule: CSc1ncnn1C[C@]1(c2ccc(F)cc2)O[C@@H]1c1cccc(Cl)c1F (relative stereo) [Compound 7, 1-[rel-(2S,3R)-3-(3-chloro-2-fluorophenyl)-2-(4-fluorophenyl)oxiran-2-ylmethyl]-5-(methylthio)-1,2,4-triazole]
- Infection in % at 600 ppm for Phakpa K1 (Phakopsora pachyrhizi; 600 ppm): 0%

Molecule: CS(=O)(=O)c1ncnn1C[C@]1(c2ccccc2Cl)O[C@@H]1c1ccc(Cl)cc1Cl (relative stereo) [Compound 8, 1-[rel-(2S,3R)-2-(2-chlorophenyl)-3-(2,4-dichlorophenyl)-oxiran-2-ylmethyl]-5-(methylsulfonyl)-1H-1,2,4-triazole]
- Growth in % at 31 ppm for Pyrior (Pyricularia oryzae; [3]): 8%

Molecule: CC(=O)Sc1ncnn1C[C@]1(c2ccccc2Cl)O[C@@H]1c1ccc(Cl)cc1Cl (relative stereo) [Compound 9, S-1-[rel-(2S,3R)-2-(2-chlorophenyl)-3-(2,4-dichorophenyl)oxiran-2-ylmethyl]-1H-1,2,4-triazole-5-ylethanethioate]
- Growth in % at 31 ppm for Pyrior (Pyricularia oryzae; [3]): 1%

Molecule: CC(=O)Sc1ncnn1C[C@]1(c2ccccc2)O[C@@H]1c1ccc(Cl)c(Cl)c1Cl (relative stereo) [Compound 10, S-1-[rel-(2S,3R)-2-phenyl)-3-(2,3,4-trichlorophenyl)oxiran-2-ylmethyl]-1H-1,2,4-triazole-5-yl ethanethioate]
- Growth in % at 31 ppm for Septtr (Septoria tritici [1]): 5%

Molecule: COC(=O)Sc1ncnn1C[C@]1(c2ccccc2Cl)O[C@@H]1c1ccc(Cl)cc1Cl (relative stereo) [Compound 11, S-{2-[2-(2-chlorophenyl)-3-(2,4-dichlorophenyl)oxiranylmethyl]-2H-[1,2,4]triazole-3-yl}methyl rel-(2S,3R)-thiocarbonate]
- Growth in % at 31 ppm for Pyrior (Pyricularia oryzae; [3]): 3%

Molecule: N#CSc1ncnn1C[C@]1(c2ccccc2Cl)O[C@@H]1c1ccc(Cl)cc1Cl (relative stereo) [Compound 12, 1-[rel-(2S,3R)-2-(2-chlorophenyl)-3-(2,4-dichlorophenyl)oxiran-2-ylmethyl]-5-thlocyanato-1H-1,2,4-triazole]
- Infection in % at 150 ppm for Phakpa K1 (Phakopsora pachyrhizi): 0%
- Infection in % at 150 ppm for Septtr P2 (Septoria tritici [2]): 10%

Molecule: [Na+].[S-]c1ncnn1C[C@]1(c2ccccc2Cl)O[C@@H]1c1ccc(Cl)cc1Cl (relative stereo) [Compound 13, sodium rel-(2S,3R)-2-(2-chlorophenyl)-3-(2,4-dichlorophenyl)oxiran-2-ylethyl]-1H-[1,2,4]triazole-5-thiolate]
- Growth in % at 31 ppm for Leptno (Leptno): 19%
- Growth in % at 31 ppm for Pyrior (Pyricularia oryzae; [3]): 19%

Molecule: CSc1ncnn1C[C@]1(c2ccccc2Cl)O[C@@H]1c1ccccc1Cl [WO9638440, p. 14 (5th compound), reference compound]
- Growth in % at 31 ppm for Pyrior (Pyricularia oryzae; [4]): 83%

Molecule: [Na+].[S-]c1ncnn1C[C@]1(c2ccccc2Cl)O[C@@H]1c1ccccc1Cl [WO9741107, p. 50 (5th compound), reference compound]
- Growth in % at 31 ppm for Leptno (Leptno): 51%
